The data set is described as follows: toxicity per os (LD50). It counts as in vivo. From the text: Furthermore, their toxicities are extremely low in comparison with previously known cytostatic and cancer retardant pharmaceuticals.

A word on the LD50: it is the dose at which mortality reaches 50%.

Where a name gives a salt, the structure may show the parent alone. Read-outs that look alike come from different tables or passages of the source.

`Clc1ccc(C(c2ccccc2)N2CC[N+]3(CCOCC3)CC2)cc1.[Br-]` (stereo not drawn) [X = Br, N^1-(4'-chlorobenzhydryl) -N^4-spiromorpholinopiperazinium bromide] displayed an LD50 of 308.5 mg/kg.

In the case of `Clc1ccc(C(c2ccccc2)N2CC[N+]3(CCOCC3)CC2)cc1` (stereo not drawn) [X = Cl, N^1-(4'-chlorobenzhydryl)-N^4-spiro-morpholino-piperazinium chloride-hydrochloride], the LD50 (in vivo, po, read-out: LD50) was 316 mg/kg.

In turn, `Clc1ccc(C(c2ccccc2)N2CC[N+]3(CCOCC3)CC2)cc1` (stereo not drawn) [X = I, N^1-(4'-chlorobenzhydryl)-N^4-spiromorpholinopiperazinium iodide] registered an LD50 of 276.7 mg/kg.

The values are drawn from patent publication US3996222A, “Piperazine derivatives” (CRC Compagnia de Ricerca Chimica, priority 1972, dated 1976).
